Measured values as given in ChEMBL document CHEMBL1201862, “PubChem BioAssay data set” (2004).
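Cultured in 96-well plates, cells were exposed to test compound for 48 hours across five concentrations. GI50 = concentration required for 50% inhibition of growth.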 Active and inactive are the calls of the source. Rule as the data show it: active = GI50 up to about 1.1 µM and inactive = higher.

How the values were obtained:
Test in all cases: inhibition of tumour cell growth, NCI panel, 48 h
HCT-15 = system: HCT-15
786-0 = system: 786-0
HT-29 = system: HT-29
IGROV-1 = system: IGROV-1
EKVX = system: EKVX
SF-539 = system: SF-539
SK-OV-3 = system: SK-OV-3
SW-620 = system: SW-620
NCI-H226 = system: NCI-H226
CCRF-CEM = system: CCRF-CEM
M14 = system: M14
SN12C = system: SN12C
SNB-75 = system: SNB-75
A498 = system: A498
CAKI-1 = system: CAKI-1
NCI-H522 = system: NCI-H522
SR = system: SR

| Compound | GI50 (HCT-15) | GI50 (786-0) | GI50 (HT-29) | GI50 (IGROV-1) | GI50 (EKVX) | GI50 (SF-539) | GI50 (SK-OV-3) | GI50 (SW-620) | GI50 (NCI-H226) | GI50 (CCRF-CEM) | GI50 (M14) | GI50 (SN12C) | GI50 (SNB-75) | GI50 (A498) | GI50 (CAKI-1) | GI50 (NCI-H522) | GI50 (SR) |
| --- | --- | --- | --- | --- | --- | --- | --- | --- | --- | --- | --- | --- | --- | --- | --- | --- | --- |
| CCOC(=O)Nc1ccc(S(=O)(=O)OC)cc1.CCOC(=O)Nc1ccc(S(=O)(=O)OC)cc1.Cc1cn(C2CC(O)C(CO)O2)c(=O)[nH]c1=O | 18.6 µM | 35.4 µM (inactive) | 54.8 µM (inactive) | > 100 µM (inactive) | > 100 µM (inactive) | > 100 µM (inactive) | > 100 µM (inactive) | 19.4 µM (inactive) | > 100 µM (inactive) | 87.1 µM (inactive) | > 100 µM (inactive) | > 100 µM (inactive) | > 100 µM (inactive) | > 100 µM (inactive) | > 100 µM (inactive) |  |  |
| COC(=O)/C(=N\NC(=O)c1ccccc1O)C(C#N)c1ccccc1 (configuration not stated) | 17.4 µM | 17.4 µM (inactive) | > 50 µM (inactive) | 19.5 µM (inactive) | 18.4 µM (inactive) | 14.8 µM (inactive) | > 45.2 µM (inactive) | 23.5 µM (inactive) | 12.7 µM (inactive) | 19.4 µM (inactive) | 31.4 µM (inactive) | 37.4 µM (inactive) | 22.5 µM (inactive) | > 25.9 µM (inactive) | 27.7 µM (inactive) | 17.2 µM (inactive) |  |
| O=C(N/C(=C\c1cc(Cl)ccc1Cl)c1nc2ccccc2[nH]1)c1ccccc1 | 24 µM | 18 µM (inactive) | 16.3 µM (inactive) | > 10 µM (inactive) | 28.5 µM (inactive) | 39.3 µM (inactive) | > 100 µM (inactive) | 22 µM (inactive) |  | 25.9 µM (inactive) | 27.9 µM (inactive) | 32.1 µM (inactive) |  |  | 30.8 µM (inactive) | 29.1 µM (inactive) | 24.4 µM (inactive) |
| COc1cc(OC)c(OC)cc1/C=N/NC(=O)N/N=C/c1cc(OC)c(OC)cc1OC | > 100 µM | > 100 µM (inactive) | > 100 µM (inactive) | > 100 µM (inactive) | > 100 µM (inactive) | 33.6 µM (inactive) | > 100 µM (inactive) | > 100 µM (inactive) | > 100 µM (inactive) | > 100 µM (inactive) | > 100 µM (inactive) | > 100 µM (inactive) | 15.8 µM (inactive) | > 100 µM (inactive) |  | 17.5 µM (inactive) |  |
| CCOCN1COCN(C)C1=O | > 100 µM | > 100 µM (inactive) | > 100 µM (inactive) | > 100 µM (inactive) | > 100 µM (inactive) | > 100 µM (inactive) | > 100 µM (inactive) | > 100 µM (inactive) | > 100 µM (inactive) | > 100 µM (inactive) | > 100 µM (inactive) | > 100 µM (inactive) | > 100 µM (inactive) | > 100 µM (inactive) | > 100 µM (inactive) |  |  |
| Oc1ccc(I)c2cccnc12 | 4.19 µM | 4.88 µM (inactive) | 38.2 µM (inactive) | 8.18 µM (inactive) | 9.27 µM (inactive) | 12.5 µM (inactive) | 5.07 µM (inactive) | 4.43 µM (inactive) | 15.6 µM (inactive) | 2.42 µM (inactive) | 10.4 µM (inactive) | 13.4 µM (inactive) |  | 32 µM (inactive) |  | 1.94 µM (inactive) | 3.35 µM (inactive) |
| CN1C=C(C(N)=O)Cc2ccsc21 | > 100 µM | > 100 µM (inactive) | > 100 µM (inactive) | > 100 µM (inactive) | > 100 µM (inactive) | > 100 µM (inactive) | > 100 µM (inactive) | > 100 µM (inactive) | > 100 µM (inactive) | > 100 µM (inactive) | > 100 µM (inactive) | > 100 µM (inactive) | > 100 µM (inactive) |  | > 100 µM (inactive) | > 100 µM (inactive) | > 100 µM (inactive) |
| CC1CCC[P+](Cc2ccccc2)(c2ccccc2)CC1 (configuration not stated) | > 100 µM | > 100 µM (inactive) |  | 39 µM (inactive) | > 100 µM (inactive) | 69.5 µM (inactive) | > 100 µM (inactive) | 94.4 µM (inactive) |  | 42.3 µM (inactive) | 35.9 µM (inactive) | > 100 µM (inactive) | 40.3 µM (inactive) | > 100 µM (inactive) |  |  |  |
| CCOC(=O)c1nc2ccc(Cl)cc2c2c1Cc1ccccc1-2 | > 100 µM | > 100 µM (inactive) |  | > 100 µM (inactive) | > 100 µM (inactive) | > 100 µM (inactive) |  | > 100 µM (inactive) | > 100 µM (inactive) |  | > 100 µM (inactive) | > 100 µM (inactive) | 70 µM (inactive) |  | > 100 µM (inactive) | 90.8 µM (inactive) | > 100 µM (inactive) |
| O=c1c2ccccc2n2n1CC(O)C2 (configuration not stated) | > 100 µM | > 100 µM (inactive) | > 100 µM (inactive) | > 100 µM (inactive) | > 100 µM (inactive) | > 100 µM (inactive) | > 100 µM (inactive) | > 100 µM (inactive) | > 100 µM (inactive) | > 100 µM (inactive) | > 100 µM (inactive) | > 100 µM (inactive) | > 100 µM (inactive) |  | > 100 µM (inactive) | > 100 µM (inactive) | > 100 µM (inactive) |
